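Compound exposure: 48 hours, 5 concentrations, 96-well plates. The concentration for 50% growth inhibition is given as GI50.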 The source made the active and inactive calls. No stated cut-off is given here; in the data, active = GI50 up to about 1.1 µM and inactive = higher.
Columns and labels:
Assay in all cases: NCI tumour cell line growth inhibition, 48 h
DMS-114 = test system: DMS-114
SNB-78 = test system: SNB-78
LXFL 529 = test system: LXFL 529
XF498 = test system: XF498
DLD-1 = test system: DLD-1
DMS-273 = test system: DMS-273
M19-MEL = test system: M19-MEL
HOP-18 = test system: HOP-18
RXF 631 = test system: RXF 631

Structure (SMILES) | GI50 (DMS-114) | GI50 (SNB-78) | GI50 (LXFL 529) | GI50 (XF498) | GI50 (DLD-1) | GI50 (DMS-273) | GI50 (M19-MEL) | GI50 (HOP-18) | GI50 (RXF 631)
O=C(O)/C=C/c1ccncc1 | > 100 µM (inactive) | > 100 µM (inactive) | > 100 µM (inactive) | > 100 µM (inactive) | > 100 µM (inactive) | > 100 µM (inactive) | > 100 µM (inactive) | – | –
O=C(N[C@@H](c1ccccc1)[C@@H](O)C(=O)OCc1ccc2c(c1)OCO2)c1ccccc1 | > 100 µM (inactive) | > 100 µM (inactive) | – | > 76.2 µM (inactive) | > 100 µM (inactive) | > 100 µM (inactive) | > 100 µM (inactive) | > 100 µM (inactive) | –
CC1C(=O)CC(c2cccs2)N(N=O)C1c1cccs1 (stereo not drawn) | – | 35.7 µM (inactive) | – | 3.08 µM (inactive) | 70.3 µM (inactive) | 38.5 µM (inactive) | 47.8 µM (inactive) | 75.2 µM (inactive) | –
CC1OC=CC(=O)C1O (stereo not drawn) | – | > 100 µM (inactive) | > 100 µM (inactive) | > 100 µM (inactive) | > 100 µM (inactive) | – | > 100 µM (inactive) | – | –
CCOC(=O)/C=C/c1c[nH]c(=O)[nH]c1=O | > 75 µM (inactive) | > 75 µM (inactive) | – | 11.9 µM (inactive) | > 75 µM (inactive) | > 75 µM (inactive) | > 75 µM (inactive) | > 75 µM (inactive) | –
CCOC(=O)C1=C(Nc2ccc(Cl)cc2Cl)OC/C1=N\NS(=O)(=O)c1ccc(C)cc1 | > 100 µM (inactive) | > 100 µM (inactive) | > 100 µM (inactive) | – | > 100 µM (inactive) | > 100 µM (inactive) | > 100 µM (inactive) | > 100 µM (inactive) | –
N#CCCc1nc2ccc(Br)cc2c(=O)n1-c1ccc(O)c([N+](=O)[O-])c1 | – | 24.2 µM (inactive) | 20 µM (inactive) | 17.1 µM (inactive) | 16.9 µM (inactive) | – | 19.4 µM (inactive) | – | 17.9 µM (inactive)
CS/C(=N\C(=S)N(C)C)N(c1ccccc1)c1nc(N(C)C)s[s+]1 | 0.708 µM (active) | 16.9 µM (inactive) | 3.87 µM (inactive) | – | – | 3.52 µM (inactive) | 3.18 µM (inactive) | – | –
CCOC(=O)NC(=O)c1cn(CCSCCOC(=O)NCCCCCCNC(=O)OCCSCCn2cc(C(=O)NC(=O)OCC)c(=O)n(C)c2=O)c(=O)n(C)c1=O | – | > 100 µM (inactive) | 5.36 µM (inactive) | 18.1 µM (inactive) | 72.8 µM (inactive) | – | 21.4 µM (inactive) | 0.237 µM (active) | 21 µM (inactive)
CC1(c2cc3c(cc2Br)OCO3)SCCCS1 | 32.2 µM (inactive) | 24.3 µM (inactive) | 45.7 µM (inactive) | 29.5 µM (inactive) | 34.8 µM (inactive) | 45.2 µM (inactive) | 39.6 µM (inactive) | – | 44.9 µM (inactive)
O=C(O)COc1ccccc1C(=O)Nc1ccccc1 | – | > 100 µM (inactive) | > 100 µM (inactive) | > 100 µM (inactive) | > 100 µM (inactive) | > 100 µM (inactive) | > 100 µM (inactive) | – | –
CN(C)/N=C(\CCN1CCCC1)CC(c1ccccc1)c1c(O)c2ccccc2oc1=O (stereo not drawn) | – | – | > 100 µM (inactive) | > 100 µM (inactive) | > 100 µM (inactive) | – | > 100 µM (inactive) | – | –
CC1=C[C@@H]2Cc3occc3C(C)(C)[C@@H]2CC1 | 20.2 µM (inactive) | 27.7 µM (inactive) | 37.5 µM (inactive) | 15.3 µM (inactive) | 17.7 µM (inactive) | 13.6 µM (inactive) | 15.6 µM (inactive) | 23.6 µM (inactive) | 20.4 µM (inactive)
CC(=O)C(=Cc1cn(C)c(=O)n(C)c1=O)C(C)=O | 88.9 µM (inactive) | 214 µM (inactive) | – | 37.8 µM (inactive) | 94.8 µM (inactive) | 98.6 µM (inactive) | 109 µM (inactive) | 160 µM (inactive) | –
N#C/N=C(/N)NCO | > 43 µM (inactive) | > 100 µM (inactive) | > 63.1 µM (inactive) | > 60.8 µM (inactive) | > 54 µM (inactive) | > 90.4 µM (inactive) | > 60.5 µM (inactive) | > 100 µM (inactive) | > 100 µM (inactive)
COC(=O)/C(=N/O)C(C(=O)OC)C(=O)C(=O)Nc1c(Cl)cc(C)cc1S(=O)(=O)O (stereo not drawn) | 56.1 µM (inactive) | > 100 µM (inactive) | > 100 µM (inactive) | > 100 µM (inactive) | > 100 µM (inactive) | 18 µM (inactive) | > 100 µM (inactive) | > 100 µM (inactive) | > 100 µM (inactive)
O=C(O)CCNCCCNCCC(=O)O | > 100 µM (inactive) | – | > 100 µM (inactive) | > 100 µM (inactive) | > 100 µM (inactive) | > 100 µM (inactive) | > 100 µM (inactive) | > 100 µM (inactive) | > 100 µM (inactive)
C#Cc1c(C)c(/C=C/C(C)=C/C=C/C(C)=C/C(=O)OC)n(C)c1C | > 100 µM (inactive) | > 100 µM (inactive) | > 100 µM (inactive) | > 100 µM (inactive) | > 100 µM (inactive) | – | > 100 µM (inactive) | – | > 100 µM (inactive)
CCOC(=O)C1=C(C)N(NC(N)=O)C(C)(O)C12CCOC2=O (stereo not drawn) | – | 1.97 µM (inactive) | > 100 µM (inactive) | > 100 µM (inactive) | > 100 µM (inactive) | > 100 µM (inactive) | > 100 µM (inactive) | – | > 100 µM (inactive)
O=C(CC(=O)n1nc(-c2ccccc2)c(/N=N/c2ccc(Cl)cc2)c1-c1ccccc1)Nc1ccc(Cl)cc1 | > 40.6 µM (inactive) | > 100 µM (inactive) | > 60 µM (inactive) | – | 18.6 µM (inactive) | > 55.1 µM (inactive) | > 47.8 µM (inactive) | > 100 µM (inactive) | > 100 µM (inactive)
CCCCCCCCOC(CO)CO | > 100 µM (inactive) | – | > 100 µM (inactive) | – | > 100 µM (inactive) | > 100 µM (inactive) | > 100 µM (inactive) | > 100 µM (inactive) | –
O=c1nc(-c2ccccc2)scc1-c1ccccc1 | > 100 µM (inactive) | – | > 100 µM (inactive) | > 100 µM (inactive) | > 100 µM (inactive) | – | > 100 µM (inactive) | > 100 µM (inactive) | > 100 µM (inactive)
CCCCCCc1cn([C@H]2C[C@H](O)[C@@H](CO)O2)c(=O)[nH]c1=O | > 100 µM (inactive) | > 100 µM (inactive) | – | > 100 µM (inactive) | > 100 µM (inactive) | > 100 µM (inactive) | > 100 µM (inactive) | > 100 µM (inactive) | –
COC(=O)C1CCC[C@H]2C(CO)=C(C)C(=O)[C@@H]12 (stereo partly drawn) | > 100 µM (inactive) | > 100 µM (inactive) | > 100 µM (inactive) | > 100 µM (inactive) | > 100 µM (inactive) | > 100 µM (inactive) | – | > 100 µM (inactive) | –
Cc1nc2c(o1)/C(=N\c1ccccc1)c1ccccc1/C2=N/c1ccccc1 | 39.2 µM (inactive) | 70.1 µM (inactive) | 45.3 µM (inactive) | > 100 µM (inactive) | 53.6 µM (inactive) | 63.5 µM (inactive) | 55.1 µM (inactive) | > 100 µM (inactive) | 81.7 µM (inactive)
Cc1cc(O)c2c(c1)C(=O)c1cc(O)cc(O)c1C2=O [EMODIN] | 41.2 µM (inactive) | 49.2 µM (inactive) | 24.4 µM (inactive) | 26.1 µM (inactive) | 23.3 µM (inactive) | 19.8 µM (inactive) | – | 3.94 µM (inactive) | 39.3 µM (inactive)

From ChEMBL document CHEMBL1201862, “PubChem BioAssay data set” (2004)
